Experimental data: publication PMC9181698 (International Journal of Molecular Sciences, 2022)
“Also recorded” adds a separate entry of the source. Residues, ends and D or L forms follow the SMILES beside them.

What was measured:
[1] = target: T1, ACE2–RBD interaction (wt SARS-CoV-2 spike protein RBD-Fc / His-tagged hACE2) (Severe acute respiratory syndrome coronavirus 2, UniProt P0DTC2); assay: SARS-CoV-2 spike protein RBD–hACE2 inhibition assay (ELISA), wt RBD; type: biochemical; conditions: individual helices of LCB1
T1 construct: SARS-CoV-2 spike protein RBD-Fc fusion protein; Fc fusion; purchased Sino Biological

[2] = target: T2, neutrophil elastase (Homo sapiens, UniProt P08246); type: in vitro ADME; conditions: neutrophil elastase 5.5 µg/mL in Tris buffer 0.1 M + NaCl 0.5 M pH 7.8, enzyme pre-incubated 15 min at 37 °C, peptide 100 µM, 60 min, LC-MS (Figure 4C,D)
T2 construct: purchased Abcam
T2 sequence (P08246 30-267): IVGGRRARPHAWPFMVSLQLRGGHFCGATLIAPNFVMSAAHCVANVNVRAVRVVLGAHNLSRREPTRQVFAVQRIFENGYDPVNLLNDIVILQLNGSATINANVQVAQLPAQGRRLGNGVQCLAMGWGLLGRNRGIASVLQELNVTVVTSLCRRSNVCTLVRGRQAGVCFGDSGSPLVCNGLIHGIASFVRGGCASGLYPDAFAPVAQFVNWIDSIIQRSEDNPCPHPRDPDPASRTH
Protocol: (§1) The enzymes (pepsin, Ph.Eur. grade, Carl Roth GmbH, and neutrophil elastase, 20–22 U/mg, Abcam, respectively) were diluted to 5.5 µg/mL in TFA 10 mM (pepsin) or Tris buffer 0.1 M + NaCl 0.5 M pH 7.8 (neutrophil elastase) and pre-incubated for 15 min at 37 °C. Peptides were added at 100 µM and incubated at 37 °C. A sample of 40 µL was taken after 60 min of incubation and the reaction was stopped by adding 5 µL sodium carbonate solution (1 M, pepsin) and 5 µL TFA (neutrophil elastase), respectively. After 10 min, 60 µL acetonitrile/water 50:50 containing 1% TFA were added, and the resulting solution was analyzed by LC-MS (conditions: Phenomenex Kinetex 2.6 μm C18 100 Å column, 50 × 2.1 mm, flow rate 0.55 mL/min, gradient of acetonitrile in H2O (both containing 0.1% TFA, 20–60% over 20 min)).

[3] = target: T3, pepsin (Sus scrofa, UniProt P00791); type: in vitro ADME; conditions: pepsin 5.5 µg/mL in TFA 10 mM, enzyme pre-incubated 15 min at 37 °C, peptide 100 µM, 60 min, LC-MS (Figure 4A,B)
T3 construct: purchased Carl Roth GmbH
Protocol: as §1

[4] = test system: neutrophil elastase; assay: neutrophil elastase, 20–22 U/mg, Abcam, diluted to 5.5 µg/mL in Tris buffer 0.1 M + NaCl 0.5 M pH 7.8; conditions: 37 °C, up to 60 min
[5] = test system: pepsin; assay: pepsin, Ph.Eur. grade, Carl Roth GmbH, diluted to 5.5 µg/mL in TFA 10 mM; conditions: 37 °C, up to 60 min

T3 sequence (P00791 60-385): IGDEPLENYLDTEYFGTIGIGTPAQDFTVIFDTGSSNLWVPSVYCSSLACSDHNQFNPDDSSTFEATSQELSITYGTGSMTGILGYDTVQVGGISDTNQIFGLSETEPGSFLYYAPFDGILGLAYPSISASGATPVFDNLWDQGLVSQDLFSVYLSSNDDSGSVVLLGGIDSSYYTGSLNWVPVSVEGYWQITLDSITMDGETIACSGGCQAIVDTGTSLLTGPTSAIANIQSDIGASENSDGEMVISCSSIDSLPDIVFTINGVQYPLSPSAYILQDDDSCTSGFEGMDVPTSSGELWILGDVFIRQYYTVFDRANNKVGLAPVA

| Molecule | Inhibitory activity on the ACE2–RBD interaction (in words) [1] | Stability towards neutrophil elastase (in words) [2] | Susceptibility to proteolytic degradation by pepsin (in words) [3] | further results |
| --- | --- | --- | --- | --- |
| CC[C@H](C)[C@H](NC(=O)[C@H](Cc1c[nH]c2ccccc12)NC(=O)[C@H](CCC(=O)O)NC(=O)[C@H](CCCCN)NC(=O)[C@H](CC(=O)O)NC(=O)COCCOCCNC(=O)CCCC[C@@H]1SC[C@@H]2NC(=O)N[C@@H]21)C(=O)N[C@@H](CC(C)C)C(=O)N[C@@H](CCC(N)=O)C(=O)N[C@@H](CCCCN)C(=O)N[C@H](C(=O)N[C@@H](Cc1ccc(O)cc1)C(=O)N[C@@H](CCC(=O)O)C(=O)N[C@H](C(=O)N[C@@H](CCSC)C(=O)N[C@@H](CCCNC(=N)N)C(=O)N[C@@H](CC(C)C)C(=O)N[C@@H](CC(C)C)C(=O)N[C@@H](CC(=O)O)C(=O)N[C@@H](CCC(=O)O)C(=O)N[C@@H](CC(C)C)C(N)=O)[C@@H](C)CC)[C@@H](C)CC [LW25.5] (HELM PEPTIDE1{[O=C1N[C@H]2[C@H](CS[C@H]2CCCCC(=O)[*:2])N1].[O=C(COCCOCCN[*:1])[*:2]].D.K.E.W.I.L.Q.K.I.Y.E.I.M.R.L.L.D.E.L.[am]}$$$$V2.0) | completely inactive |  |  |  |
| CC[C@H](C)[C@H](NC(=O)[C@H](CC(C)C)NC(=O)[C@H](CC(=O)O)NC(=O)[C@H](CO)NC(=O)[C@@H](NC(=O)[C@H](CCCNC(=N)N)NC(=O)[C@H](CCSC)NC(=O)[C@H](CO)NC(=O)[C@H](C)NC(=O)[C@H](CCC(=O)O)NC(=O)[C@H](C)NC(=O)[C@H](Cc1c[nH]cn1)NC(=O)CNC(=O)COCCOCCNC(=O)CCCC[C@@H]1SC[C@@H]2NC(=O)N[C@@H]21)C(C)C)C(=O)N[C@@H](Cc1ccc(O)cc1)C(=O)N[C@@H](CCC(=O)O)C(=O)N[C@@H](Cc1ccccc1)C(=O)N[C@@H](CCSC)C(=O)N[C@@H](CCCCN)C(=O)N[C@@H](CCCCN)C(=O)NCC(N)=O [LW25.6] (HELM PEPTIDE1{[O=C1N[C@H]2[C@H](CS[C@H]2CCCCC(=O)[*:2])N1].[O=C(COCCOCCN[*:1])[*:2]].G.H.A.E.A.S.M.R.V.S.D.L.I.Y.E.F.M.K.K.G.[am]}$$$$V2.0) | completely inactive |  |  |  |
| CC[C@H](C)[C@@H]1NC(=O)[C@H](CC(C)C)NC(=O)[C@H](CC(=O)O)NC(=O)[C@H](CO)NC(=O)[C@H](C(C)C)NC(=O)[C@H](CCCNC(=N)N)NC(=O)[C@H](CCSC)NC(=O)[C@H](CO)NC(=O)[C@H](C)NC(=O)[C@H](CCC(=O)O)NC(=O)[C@H](C)NC(=O)[C@H](Cc2c[nH]cn2)NC(=O)CNC(=O)[C@H](CC(C)C)NC(=O)[C@H](CCC(=O)O)NC(=O)[C@H](CC(=O)O)NC(=O)[C@H](CC(C)C)NC(=O)[C@H](CC(C)C)NC(=O)[C@H](CCCNC(=N)N)NC(=O)[C@H](CCSC)NC(=O)[C@H]([C@@H](C)CC)NC(=O)[C@H](CCC(=O)O)NC(=O)[C@H](Cc2ccc(O)cc2)NC(=O)[C@H]([C@@H](C)CC)NC(=O)[C@H](CCCCN)NC(=O)[C@H](CCC(N)=O)NC(=O)[C@H](CC(C)C)NC(=O)[C@H]([C@@H](C)CC)NC(=O)[C@H](Cc2c[nH]c3ccccc23)NC(=O)[C@H](CCC(=O)O)NC(=O)[C@@H](NC(=O)COCCOCCNC(=O)CCCC[C@@H]2SC[C@@H]3NC(=O)N[C@@H]32)CSSC[C@@H](C(N)=O)NC(=O)[C@H](CCCCN)NC(=O)[C@H](CCCCN)NC(=O)[C@H](CCSC)NC(=O)[C@H](Cc2ccccc2)NC(=O)[C@H](CCC(=O)O)NC(=O)[C@H](Cc2ccc(O)cc2)NC1=O [LW25.13] |  | still largely intact | largely stable |  |
| CC[C@H](C)[C@H](NC(=O)[C@H](CC(C)C)NC(=O)[C@H](CC(=O)O)NC(=O)[C@H](CO)NC(=O)[C@@H](NC(=O)[C@H](CCCNC(=N)N)NC(=O)[C@H](CCSC)NC(=O)[C@H](CO)NC(=O)[C@H](C)NC(=O)[C@H](CCC(=O)O)NC(=O)[C@H](C)NC(=O)[C@H](Cc1c[nH]cn1)NC(=O)CNC(=O)[C@H](CC(C)C)NC(=O)[C@H](CCC(=O)O)NC(=O)[C@H](CC(=O)O)NC(=O)[C@H](CC(C)C)NC(=O)[C@H](CC(C)C)NC(=O)[C@H](CCCNC(=N)N)NC(=O)[C@H](CCSC)NC(=O)[C@@H](NC(=O)[C@H](CCC(=O)O)NC(=O)[C@H](Cc1ccc(O)cc1)NC(=O)[C@@H](NC(=O)[C@H](CCCCN)NC(=O)[C@H](CCC(N)=O)NC(=O)[C@H](CC(C)C)NC(=O)[C@@H](NC(=O)[C@H](Cc1c[nH]c2ccccc12)NC(=O)[C@H](CCC(=O)O)NC(=O)[C@H](CCCCN)NC(=O)[C@H](CC(=O)O)NC(=O)COCCOCCNC(=O)CCCC[C@@H]1SC[C@@H]2NC(=O)N[C@@H]21)[C@@H](C)CC)[C@@H](C)CC)[C@@H](C)CC)C(C)C)C(=O)N[C@@H](Cc1ccc(O)cc1)C(=O)N[C@@H](CCC(=O)O)C(=O)N[C@@H](Cc1ccccc1)C(N)=O [LW32.4] |  | rapidly hydrolyzed | hydrolyzed only at position L31 |  |
| Biotin-Aoa-DKEWILQKIYEIMRLLDELGHAEASMRVSDLIYEF-NH2 |  |  |  | cleaved bond [4]: A-S, 60 min; also recorded: S-M, 60 min; cleaved bond [5]: L31-I32, 60 min |
| Biotin-Aoa-[^3 CEWILQKIYEIMRLLDELGHAEASMRVSDLIYEFMKKC]-NH2 |  |  |  | not cleaved [4]: still largely intact after 60 min exposure to the enzyme; not cleaved [5]: largely stable towards pepsin for at least 60 min |
